According to patent publication US10898548B2, “Modulators of protein tyrosine phosphatase and uses thereof” (LEUVAS THERAPEUTICS, priority 2015, dated 2021):

Columns and labels:
[1] = system: T98G GBM cells; assay: MTT survival assay, T98G GBM cells; format: cell-based, human
Protocol: The DBTRG-O5MG (Denver Brain Tumor Research Group 05) cell line was established from tissue from a patient with glioblastoma multiforme who had been treated with local brain irradiation and multi drug chemotherapy (Kruse C A, et al. 1992 In vitro Cell Dev Biol, 28A(9-10):609-14). U87 is a commonly studied and thoroughly characterized grade IV glioma cell line derived from malignant glioma (Clark M J, et al, 2010 Plos Genet. 6(1):e1000832.). T98G is a glioblastoma multiforme cell line extracted from a person (Stein G H, 1979, J. Cell Physiol, 99(1):43-54). Proliferation and survival were assessed following TAT-ICD or control peptide (Table 29) or the P1-WD or control peptide treatment using the MTT assay as described above. Data are relative absorption; mean and standard deviation.

[2] = system: U251 cells; assay: TUNEL labeling assay, U251 cells; format: cell-based; conditions: 50 μM P1-WD
Protocol: (§1) Briefly, U251 GBM cells, normal primary cortical murine neurons and a mixed culture of murine microglia and astrocytes were treated for 24, 48 and 72 hours with no treatment (control), delivery peptide (P1 or TAT) or increasing concentrations of P1-WD or TAT-ICD. Cell viability and survival was measured using the MTT assay, a colorimetric assay for assessing cell metabolic activity set up under conditions where the absorption reflects the number of viable cells present (Table 21 and 22) and expressed as relative absorption at 570 nm. Early apoptosis was measured using VYBRANT DyeCycle Violet stain (Molecular Probes), a DNA-selective, cell membrane-permeant dye that can distinguish the compacted state of the nuclear chromatin in apoptotic cells as determined by flow cytometry and presented as the percent of cells that are apoptotic (Table 23 and 24). The actual number of cells following treatment with TAT-ICD or TAT alone (Table 25) was determined using flow cytometry compared to an input of 5,000 cells at time zero. To confirm apoptosis the TUNEL labeling assay, which detects DNA strand breaks in apoptotic cells by fluorescence microscopy, was also used to examine U251 cells treated with the PTPRG WD. Briefly, the assay used an optimized terminal transferase ([…]) to label 3′OH ends in genomic DNA with TMR-dUTP, thus allowing the measurement and quantification of cell death by apoptosis. U251 cells were pretreated for 1, 3 and 6 hours with 50 μM P1-WD. Then cells were fixed and permeabilized, incubated with TUNEL reaction mixture for 1 h at RT, and then stained with DAPI (for nuclei detection) and with Alexa670-Phalloidin (to detect actin in cell membranes). After the staining steps, cells were visualized with a confocal microscope.
This finding was validated using the TUNEL in situ apoptosis cell death detection staining.

[3] = system: U251 GBM cells; assay: VYBRANT DyeCycle Violet early apoptosis, U251 GBM cells; format: cell-based
Protocol: as §1, with “Cell” for “Briefly, U251 GBM cells, normal primary cortical murine neurons and a mixed culture of murine microglia and astrocytes were treated for 24, 48 and 72 hours with no treatment (control), delivery peptide (P1 or TAT) or increasing concentrations of P1-WD or TAT-ICD. Cell”

[4] = system: U251 GBM cells; assay: MTT survival assay, U251 GBM cells; format: cell-based
Protocol: as §1

[5] = system: U87 GBM cells; assay: VYBRANT apoptosis, U87 GBM cells; format: cell-based; conditions: 0.5 μM
[6] = system: bEnd3 endothelial cells; assay: MTT assay, bEnd3 endothelial cells; format: cell-based
[7] = system: DBTRG GBM cells; assay: VYBRANT early apoptosis, DBTRG GBM cells; format: cell-based, human; conditions: 0.5 μM
[8] = system: U251 GBM cells; assay: cell number by flow cytometry, U251 GBM cells; format: cell-based; conditions: TAT 50 μM, input 5000
Protocol: as §1, with “Cell” for “Briefly, U251 GBM cells, normal primary cortical murine neurons and a mixed culture of murine microglia and astrocytes were treated for 24, 48 and 72 hours with no treatment (control), delivery peptide (P1 or TAT) or increasing concentrations of P1-WD or TAT-ICD. Cell”

**Q.** Which results are given for “P1-WD: fusion Trojan peptide SEQ ID 3: Penetratin, glycine, PTPRG wedge domain aa 831-856; RQIKIWFQNRRMKWKKGKQFVKHIGELYSNNQHGFSEDFEEVQ (listed as Homo sapiens)”?
**A.** absorbance in the MTT assay ([1]; P1-WD 10 μM, 24 hours, Control 971): 629; absorbance in the MTT assay ([1]; P1-WD 10 μM, 48 hours, Control 1305): 854; absorbance in the MTT assay ([1]; P1-WD 10 μM, 72 hours, Control 1481): 985; absorbance in the MTT assay ([1]; P1-WD 25 μM, 24 hours, Control 971): 555; absorbance in the MTT assay ([1]; P1-WD 25 μM, 48 hours, Control 1305): 697; absorbance in the MTT assay ([1]; P1-WD 25 μM, 72 hours, Control 1481): 835; absorbance in the MTT assay ([1]; P1 or P1-WD 50 μM, 24 hours, Control 971): 540; absorbance in the MTT assay ([1]; P1 or P1-WD 50 μM, 48 hours, Control 1305): 744; absorbance in the MTT assay ([1]; P1 or P1-WD 50 μM, 72 hours, Control 1481): 842; DNA fragmentation, TUNEL staining [2]: fragmented DNA as early as 3 hours after initiation of treatment; percent of apoptotic cells (early apoptosis) ([3]; P1-WD 10 μM, 6 h, Control 5): 13%; percent of apoptotic cells (early apoptosis) ([3]; P1-WD 10 μM, 9 h, Control 12): 21%; percent of apoptotic cells (early apoptosis) ([3]; P1-WD 10 μM, 24 h, Control 8): 25%; percent of apoptotic cells (early apoptosis) ([3]; P1-WD 25 μM, 6 h, Control 5): 21%; percent of apoptotic cells (early apoptosis) ([3]; P1-WD 25 μM, 9 h, Control 12): 30%; percent of apoptotic cells (early apoptosis) ([3]; P1-WD 25 μM, 24 h, Control 8): 30%; percent of apoptotic cells (early apoptosis) ([3]; P1 or P1-WD 50 μM, 6 h, Control 5): 33%; percent of apoptotic cells (early apoptosis) ([3]; P1 or P1-WD 50 μM, 9 h, Control 12): 40%; percent of apoptotic cells (early apoptosis) ([3]; P1 or P1-WD 50 μM, 24 h, Control 8): 40%; MTT relative absorption at 570 nM ([4]; P1-WD 10 uM, 24 hours, control 821): 656; MTT relative absorption at 570 nM ([4]; P1-WD 10 uM, 48 hours, control 1943): 1400; MTT relative absorption at 570 nM ([4]; P1-WD 10 uM, 72 hours, control 2556): 1593; MTT relative absorption at 570 nM ([4]; P1-WD 25 uM, 24 hours, control 821): 469; MTT relative absorption at 570 nM ([4]; P1-WD 25 uM, 48 hours, control 1943): 820; MTT relative absorption at 570 nM ([4]; P1-WD 25 uM, 72 hours, control 2556): 1281; MTT relative absorption at 570 nM ([4]; P1 or P1-WD 50 uM, 24 hours, control 821): 411; MTT relative absorption at 570 nM ([4]; P1 or P1-WD 50 uM, 48 hours, control 1943): 733; MTT relative absorption at 570 nM ([4]; P1 or P1-WD 50 uM, 72 hours, control 2556): 1060

**Q.** For “TAT (GRKKRRQRRRPPQ; listed as Homo sapiens) [reference compound]”, which “absorbance in the MTT assay” value ([1]; TAT 500[…]μM, 24 hours, CTRL 971) is on record?
**A.** 954

**Q.** What about the “absorbance in the MTT assay” value ([1]; TAT 500[…]μM, 48 hours, CTRL 1305) of the same substance?
**A.** 1237

**Q.** What about the “absorbance in the MTT assay” value ([1]; TAT 500[…]μM, 72 hours, CTRL 1481) of the same substance?
**A.** 1205

**Q.** And the “percent of apoptotic cells” value ([5]; 1 hour, Control 10)?
**A.** 20%

**Q.** And the “percent of apoptotic cells” value ([5]; 3 hours, Control 3)?
**A.** 10%

**Q.** What about the “percent of apoptotic cells” value ([5]; 6 hours, Control 14) of the same substance?
**A.** 20%

**Q.** What about the “mean absorbance in the MTT assay” value ([6]; 0.1 uM, 24 hours, CTRL 352) of the same substance?
**A.** 354

**Q.** What about the “mean absorbance in the MTT assay” value ([6]; 0.1 uM, 48 hours, CTRL 523) of the same substance?
**A.** 503

**Q.** What about the “mean absorbance in the MTT assay” value ([6]; 0.25 uM, 24 hours, CTRL 352) of the same substance?
**A.** 338

**Q.** What about the “mean absorbance in the MTT assay” value ([6]; 0.25 uM, 48 hours, CTRL 523) of the same substance?
**A.** 540

**Q.** What about the “mean absorbance in the MTT assay” value ([6]; 0.5 uM, 24 hours, CTRL 352) of the same substance?
**A.** 328

**Q.** What about the “mean absorbance in the MTT assay” value ([6]; 0.5 uM, 48 hours, CTRL 523) of the same substance?
**A.** 528

**Q.** What about the “percent of apoptotic cells by flow cytometry” value (shortened to “percent … by flow cytometry”) ([7]; 1 h, Control 14) of the same substance?
**A.** 10%

**Q.** What about the “percent … by flow cytometry” value ([7]; 3 h, Control 16) of the same substance?
**A.** 10%

**Q.** And the “percent … by flow cytometry” value ([7]; 6 h, Control 33)?
**A.** 7%

**Q.** What about the “DNA fragmentation, TUNEL staining” value [2] of the same substance?
**A.** did not show fragmented DNA or cell loss

**Q.** What about the “percent of apoptotic cells (early apoptosis)” value (shortened to “percent … (early apoptosis)”) ([3]; TAT 50 uM, 6 hr, CTRL 4.6) of the same substance?
**A.** 10.0%

**Q.** And the “percent … (early apoptosis)” value ([3]; TAT 50 uM, 9 hr, CTRL 6.0)?
**A.** 11.0%

**Q.** And the “percent … (early apoptosis)” value ([3]; TAT 50 uM, 24 hr, CTRL 7.0)?
**A.** 8.0%

**Q.** And the number of cells ([8]; 6 hours, Control 5000)?
**A.** 4700 cells per standard volume of medium

**Q.** And the number of cells ([8]; 9 hours, Control 10000)?
**A.** 7000 cells per standard volume of medium

**Q.** What about the number of cells ([8]; 24 hours, Control 10000) of the same substance?
**A.** 11385 cells per standard volume of medium

**Q.** And the “MTT relative absorption at 570 nM” value ([4]; TAT 50 uM, 24 hrs, Control 821)?
**A.** 825

**Q.** And the “MTT relative absorption at 570 nM” value ([4]; TAT 50 uM, 48 hrs, Control 1943)?
**A.** 1654

**Q.** What about the “MTT relative absorption at 570 nM” value ([4]; TAT 50 uM, 72 hrs, Control 2556) of the same substance?
**A.** 2068
